Reference: patent US10266549B2, “ULK1 inhibitors and methods using same” (SALK INSTITUTE FOR BIOLOGICAL STUDIES, priority 2014, dated 2019)

How the values were obtained:
panel of 456 kinases = assay: DiscoveRx KINOMEscan competition binding assay; parameters: species or system human
Procedure: FIG. 7E: (top) The kinase selectivity profile for compound 14 was determined using the DiscoveRx KINOMEscan profiling service. Briefly, compound 14 was screened at a 1-μM dose for its ability to impair binding of a panel of 456 kinases to substrate in an in vitro binding assay. Scores for the primary screen hits are reported as a percent of the DMSO control (% Control). Lower scores reflect stronger inhibitory effects of compound 14 on the target kinase. Compound 14 was very selective, only inhibiting 8 kinases >95% and 19 kinases >90% when tested at 10 μM. (bottom) In vitro kinase assays were performed for selected kinases. These assays were performed in the presence of compound 14 in a dose-response manner to identify the IC50 value for compound 14 for each of these individual kinases. […] Of the remaining kinases, those kinases which IC50 value was less than what was identified from ULK2 are highlighted in brown.
(§1) Kinase inhibitor specificity profiling assays were first carried out using DiscoveRx KINOMEscan competition binding assay against a panel of 456 kinases (www dot discoverx dot corn) using 1 μM compound 14.
We next examined the specificity of compound 14 using the DiscoveRx KINOMEscan panel of 456 purified human kinases and subsequent competition binding assay.

endogenous ULK1 = endogenous ULK1 activity in MEFs: mobility shift of Beclin1 and Atg13; format: cell-based, mouse; settings: WT MEFs, 10 μM co-treatment, 1 hr
Procedure: FIG. 7D: WT or Ulk1/Ulk2 double knockout mouse embryonic fibroblasts (MEFs) were treated with fresh media (Dulbecco's modified Eagle medium [DMEM] containing 10% FBS) containing 1-μM INK128, 1-μM AZD8055, or DMSO or with starvation media (EBSS) in the presence or absence of 10 μM compound 14. Cellular lysates were isolated after 1 hr of treatment and immunoblotted with the indicated antibodies. Asterisk denotes non-specific band.
We next examined whether compound 14 inhibits endogenous ULK1 activity. To activate endogenous ULK1, we treated MEFs with either amino acid starvation media (Earle's balanced salt solution [EBSS]) or the mTOR ATP-competitive inhibitors INK128 or AZD8055. In WT MEFs, we observed a mobility shift in endogenous Beclin1 and Atg13 in response to EBSS starvation media or the mTOR catalytic inhibitors, which was abolished in Ulk1/2-deficient MEFs (FIG. 7D). […] In certain embodiments, the mobility shifts observed in endogenous Beclin1 and Atg13 induced by mTOR inhibitors and starvation media reflect phosphorylation of endogenous Beclin1/Atg13 by endogenous ULK1/2 as they only occur in WT but not Ulk1/2-deficient MEFs.

A549 lung cancer cells = assay: AnnexinV apoptosis analysis in A549 cells with mTOR inhibitor; format: cell-based
Procedure: A549 cells (ATCC #CCL185) and MEFs were seeded at a concentration of 2.5×10^5 cells/mL (i.e., 750,000 cells per 6 cm dish), grown overnight (18 hrs) and treated as indicted in the figure legends. Unless otherwise indicated, “starvation” is EBSS and “control” is DMEM with full serum for indicated timepoints. Samples for western blot were washed once in 1× ice cold PBS and lysed in boiling SDS lysis buffer (10 mM Tris […], 100 mM NaCl, 1% SDS). After trituration, lysates were equilibrated for protein levels using the BCA method (Pierce) and resolved on 8 to 15% SDS-PAGE gels, depending on the size of the protein. PVDF membranes were probed with indicated antibodies overnight according to the manufacturers instructions.
(§2) For flow cytometry analysis, cells were collected at the appropriate time point, washed once in PBS, trypsinized and pelleted. For Annexin V staining, cells were washed in 1× Annexin V buffer and treated as described by the Annexin V staining protocol (BD Pharmingen, San Diego, Calif.). Briefly, cells were resuspended in Annexin V buffer to a concentration of one million per mL, 100,000 cells were then stained with 5 μL of phycoerythrin (PE)-conjugated Annexin V antibody (BD Pharmingen, San Diego, Calif.) and 5 μL of 7-amino-actinomycin D (7AAD) and then incubated at room temperature for 15 minutes. 400 μL of Annexin V buffer was then added to each sample with gentle mixing. Stained cells were analyzed using a FACScan flow cytometer (Becton Dickinson, San Jose, Calif.). Flow cytometry data was analyzed using FlowJo 8.6 software (Tree Star Inc., Ashland, Oreg.).
There has been great interest in the role of autophagy in the survival of tumor cells, particular tumor cells faced with metabolic stress from chemotherapies or targeted therapeutics. We next examined whether compound 14 would promote apoptosis in tumor cells similar to the MEFs, selectively under conditions in which autophagy is actively engaged. […] Given that mTOR activity is a dominant regulator of ULK1 activity, and we previously noted that treatment of cells with mTOR catalytic inhibitors was sufficient to induce ULK1 activity, we examined the effect of adding in the ULK1 inhibitor in the context of treatment with mTOR catalytic inhibitors. Using a cell line well-established to be sensitive to mTORC1 inhibition, A549 lung cancer cells, we treated with escalating doses of ULK1 inhibitor while keeping a constant cytostatic growth arrest-inducing 1 micromolar dose of the mTOR catalytic inhibitor AZD8055. We observed that 5 μM compound 14 in combination with AZD8055 triggered apoptosis in 22% of A549 cells compared to 9% of the 5 μM compound 14 alone or 6% of those cells treated with AZD8055 alone. […]

U87MG glioblastoma cells = assay: AnnexinV apoptosis in U87MG cells; format: cell-based; settings: selectively in the nutrient-starved state
Procedure: as §2
(§3) There has been great interest in the role of autophagy in the survival of tumor cells, particular tumor cells faced with metabolic stress from chemotherapies or targeted therapeutics. We next examined whether compound 14 would promote apoptosis in tumor cells similar to the MEFs, selectively under conditions in which autophagy is actively engaged. […]

[1] = tested on: murine Kras p53 lung carcinoma cells; assay: AnnexinV apoptosis in Kras p53 lung carcinoma cells; format: cell-based; settings: selectively in the nutrient-starved state
Procedure: as §2, §3

AuroraA kinase = AuroraA kinase (Homo sapiens (Human), UniProt O14965); assay: classic in vitro kinase assay, dose-response (Reaction Biology); format: biochemical; settings: dose-response curves
Procedure: as §1
(§4) To use a more well-established measure of the selectivity of compound 14 against its top binding kinases, we examined dose-response curves for its inhibition of these kinases in a classic in vitro kinase assays. Here we tested the ten kinases most suppressed by compound 14 by the ATP binding assay. […] It is important to note that even though compound 14 inhibits these 4 kinase quite equivalently across all of the different assays we have examined, this is still greater selectivity than all but a handful of widely used ATP-competitive kinases inhibitors widely used in clinical oncology today. We next examined the ability of compound 14 to suppress signaling downstream of various kinases in cells in culture. […] Similarly, compound 14 inhibited FAK and AuroraA comparably to ULK1 in MEFs as well.

FAK = FAK (Homo sapiens (Human), UniProt Q05397); assay: as above; format: biochemical; settings: dose-response curves
Procedure: as §1, §4

JAK2 = JAK2 (Homo sapiens (Human), UniProt O60674); assay: as above; format: biochemical; settings: dose-response curves
Procedure: as §1, §4

[2] = panel of 456 kinases, tested at 10 μM as printed (method says 1 μM)

Chain of AuroraA kinase (O14965 whole entry): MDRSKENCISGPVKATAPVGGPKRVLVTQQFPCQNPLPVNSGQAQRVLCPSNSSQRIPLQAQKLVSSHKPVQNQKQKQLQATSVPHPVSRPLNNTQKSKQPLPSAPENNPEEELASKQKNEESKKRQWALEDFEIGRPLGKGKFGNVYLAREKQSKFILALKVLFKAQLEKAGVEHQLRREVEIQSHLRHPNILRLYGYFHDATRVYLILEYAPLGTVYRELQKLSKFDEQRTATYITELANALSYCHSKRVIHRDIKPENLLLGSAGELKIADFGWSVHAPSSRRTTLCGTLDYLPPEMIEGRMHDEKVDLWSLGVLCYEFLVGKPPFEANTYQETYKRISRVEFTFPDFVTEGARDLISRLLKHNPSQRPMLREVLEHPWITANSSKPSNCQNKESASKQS
Chain of FAK (Q05397 whole entry): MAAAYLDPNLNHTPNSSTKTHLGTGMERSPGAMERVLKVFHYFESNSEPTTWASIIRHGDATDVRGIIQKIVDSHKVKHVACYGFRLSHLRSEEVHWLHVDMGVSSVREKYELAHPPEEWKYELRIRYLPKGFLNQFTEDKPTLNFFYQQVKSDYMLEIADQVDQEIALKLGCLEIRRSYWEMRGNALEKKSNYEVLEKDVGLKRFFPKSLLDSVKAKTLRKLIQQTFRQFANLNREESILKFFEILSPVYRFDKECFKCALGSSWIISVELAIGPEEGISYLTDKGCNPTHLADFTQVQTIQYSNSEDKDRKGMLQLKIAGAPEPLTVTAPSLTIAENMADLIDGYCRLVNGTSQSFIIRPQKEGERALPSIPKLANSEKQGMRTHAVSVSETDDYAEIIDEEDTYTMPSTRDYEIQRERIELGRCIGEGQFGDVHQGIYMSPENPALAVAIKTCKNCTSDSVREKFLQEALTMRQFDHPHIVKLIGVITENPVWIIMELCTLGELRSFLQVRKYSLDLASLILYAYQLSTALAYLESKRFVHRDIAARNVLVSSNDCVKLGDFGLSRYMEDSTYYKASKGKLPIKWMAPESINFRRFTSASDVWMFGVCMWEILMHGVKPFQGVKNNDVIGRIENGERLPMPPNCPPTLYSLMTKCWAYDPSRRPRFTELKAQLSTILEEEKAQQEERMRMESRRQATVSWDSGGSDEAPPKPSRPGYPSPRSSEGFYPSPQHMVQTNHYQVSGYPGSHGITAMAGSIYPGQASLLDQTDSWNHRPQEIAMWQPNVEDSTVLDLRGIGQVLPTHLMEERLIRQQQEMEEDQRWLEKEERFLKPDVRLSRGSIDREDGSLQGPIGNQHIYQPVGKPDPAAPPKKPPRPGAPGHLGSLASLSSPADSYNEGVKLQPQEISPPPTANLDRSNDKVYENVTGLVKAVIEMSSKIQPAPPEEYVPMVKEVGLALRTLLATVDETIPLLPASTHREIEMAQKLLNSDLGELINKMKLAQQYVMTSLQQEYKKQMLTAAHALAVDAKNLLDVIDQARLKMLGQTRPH
Chain of JAK2 (O60674 whole entry): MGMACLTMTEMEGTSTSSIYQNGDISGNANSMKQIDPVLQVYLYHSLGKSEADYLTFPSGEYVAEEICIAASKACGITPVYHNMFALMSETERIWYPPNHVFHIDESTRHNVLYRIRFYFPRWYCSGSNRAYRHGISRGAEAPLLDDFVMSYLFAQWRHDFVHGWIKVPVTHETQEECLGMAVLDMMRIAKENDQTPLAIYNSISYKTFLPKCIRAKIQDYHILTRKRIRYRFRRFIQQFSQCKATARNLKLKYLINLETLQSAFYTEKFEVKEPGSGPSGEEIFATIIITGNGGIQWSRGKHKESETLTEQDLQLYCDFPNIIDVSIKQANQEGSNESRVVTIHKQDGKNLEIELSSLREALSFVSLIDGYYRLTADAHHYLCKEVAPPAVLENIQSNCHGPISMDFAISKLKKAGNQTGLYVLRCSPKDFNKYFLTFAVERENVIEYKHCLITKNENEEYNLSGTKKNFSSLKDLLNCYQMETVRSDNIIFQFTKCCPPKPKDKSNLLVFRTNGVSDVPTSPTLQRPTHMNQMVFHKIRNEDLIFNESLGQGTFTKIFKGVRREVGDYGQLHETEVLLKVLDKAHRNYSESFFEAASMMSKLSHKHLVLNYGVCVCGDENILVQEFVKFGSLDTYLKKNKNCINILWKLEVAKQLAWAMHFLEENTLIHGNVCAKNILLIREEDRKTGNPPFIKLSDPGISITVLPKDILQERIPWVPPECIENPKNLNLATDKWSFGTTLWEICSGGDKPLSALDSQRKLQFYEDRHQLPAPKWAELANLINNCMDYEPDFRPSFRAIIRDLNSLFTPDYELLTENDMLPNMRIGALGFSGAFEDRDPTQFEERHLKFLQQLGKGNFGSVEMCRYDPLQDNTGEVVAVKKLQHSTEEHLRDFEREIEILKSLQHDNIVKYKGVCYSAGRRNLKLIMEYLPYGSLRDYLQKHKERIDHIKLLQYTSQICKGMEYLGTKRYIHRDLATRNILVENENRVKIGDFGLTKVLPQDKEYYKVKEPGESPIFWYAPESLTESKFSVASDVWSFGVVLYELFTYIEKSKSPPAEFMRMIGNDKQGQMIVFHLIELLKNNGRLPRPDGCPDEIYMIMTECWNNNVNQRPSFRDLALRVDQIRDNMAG

CNC(=O)c1ccccc1Nc1nc(Nc2cc(OC)c(OC)c(OC)c2)ncc1Br [compound 14, 2-(5-bromo-2-(3,4,5-trimethoxyphenylamino)pyrimidin-4-ylamino)-N-methylbenzamide]
S(35) selectivity index (panel of 456 kinases; (number of non-mutant kinases with % Ctrl <35)/(number of non-mutant kinases tested)): 0.123 | number of kinases inhibited >90% (panel of 456 kinases; [2]): 19 | number of kinases inhibited >95% (panel of 456 kinases; [2]): 8 | EBSS and mTOR-inhibitor induced mobility shift in Beclin1 and Atg13 (endogenous ULK1): inhibited | apoptosis, % of A549 cells (A549 lung cancer cells; 5 μM compound 14 alone): 9% | apoptosis, % of A549 cells (A549 lung cancer cells; 5 μM compound 14 in combination with 1 micromolar AZD8055): 22% | induction of Annexin-V+ apoptotic A549 cells (A549 lung cancer cells; 10 or 20 μM compound 14 with AZD8055): even more dramatically heightened | apoptosis (AnnexinV+ cells) (U87MG glioblastoma cells): promoted apoptosis | apoptosis (AnnexinV+ cells) [1]: promoted apoptosis | inhibition relative to ULK1 (AuroraA kinase): equivalently inhibited | inhibition relative to ULK1 (FAK): equivalently inhibited | inhibition relative to ULK1 (JAK2): equivalently inhibited
